# Measurements as given in patent publication US20120207737A1, “MEDICAL UTILITY OF GLYCAN-BINDING PROTEINS AND GLYCANS” (UNIVERSITY OF ZURICH, priority 2009, published 2012).
# “Also recorded” adds a separate entry of the source.
# Assays:
# [1] = molecular target: T1, Coprinopsis cinerea galectin CGL2, wild type (Genbank AAF34732) (Coprinopsis cinerea, UniProt Q9P4R8); assay: Isothermal Titration Microcalorimetry (ITC), in vitro binding of C. cinerea galectin CGL2 to synthetic trisaccharide; settings: 25° C.
# T1 construct: amplifying the respective open reading frame from cDNA or available plasmids; made in house; host or cells: Escherichia coli BL21(DE3), vector pET24a
# Protocol: The raw data is shown in the upper panel.
# Bacterial cell pellets were resuspended in ice-cold phosphate-buffered saline (PBS) [30 mM Na-phosphate pH 7.3, 150 mM NaCl] containing 1 mM phenylmethylsulfonyl fluoride and ruptured using a French press. Cell debris was removed in two consecutive steps of centrifugation at 12000 g for 15 min and 27000 g for 30 min. The supernatant was incubated with lactosyl-sepharose at 4° C. for 1 h and CGL2 was finally eluted at room temperature in PBS containing 200 mM lactose. After size exclusion chromatography on Superose 6 10/300 GL (GE Healthcare) equilibrated in PBS, fractions containing the protein were pooled and concentrated using an Amicon Ultra-4 centrifugal filter device (Millipore) with a molecular weight cutoff of 10 kDa. Protein concentration was calculated by measuring the absorbance at 280 nm, assuming a relation of 1.25 mg mk^−1 to 1 unit absorbance at 280 nm for a path length of 1 cm. Conjugation of purified CGL2 to tetramethylrhodamine (TAMRA) (Molecular Probes) was performed as described in Walser, P. J. et al. (2005) Fungal Genet Biol 42, 293-305.
# Experiments were performed with a VP-ITC isothermal titration calorimeter (Microcal, Mass., USA) at 25° C. using purified CGL2 (300 μM in TBS). Gal-β-1,4-Fuc-α-1,6-GlcNAc-β-O—C5H10-NH2 was dissolved in TBS at a concentration of 1.6 mM corrected based on purity estimate by ^1H-NMR (ca. 50-60%). The ligand was titrated into a cell containing the protein solution in 48 injections of 6 μl preceded by a single injection of 2 μl. All injections were performed at intervals of 3 min while stirring at 270 rpm. Experimental data were fitted to a theoretical titration curve using the MCS—ORIGIN software supplied by Microcal.
# [2] = test system: C. elegans glycosylation mutants; assay: Lectin sensitivity of C. elegans glycosylation mutants (development L1 to L4); type: in vivo, Caenorhabditis elegans; settings: testing of C. elegans glycosylation mutants, forward genetic screen
# Protocol: FIG. 4 is a graph showing the CGL2-sensitivity of various C. elegans glycosylation mutants. C. elegans mutants of the genotypes indicated in the X-coordinate were analysed for development from L1 to L4 on CGL2-expressing E. coli as described in the experimental procedures below. See Table 1 below for glycosylation processes encoded by the various C. elegans genes.
# FIG. 8 is a bar graph illustrating the RedA(CCL2)-sensitivity of various C. elegans glycosylation mutants. C. elegans mutants of the indicated genotypes were analysed for development from L1 to L4 on RedA-expressing E. coli as described in the below experimental procedures. Mutants not analyzed yet are indicated as n.d. See Table 1 below for glycosylation processes encoded by the various C. elegans genes.
# FIG. 9 is a bar graph illustrating the MOA-sensitivity test of various C. elegans glycosylation mutants. C. elegans mutants of the indicated genotypes were analysed for development from L1 to L4 on MOA-expressing E. coli as described in experimental procedures below. Mutants not analyzed yet are indicated as n.d. […]
# FIG. 10 is a bar graph illustrating the AAL-sensitivity of various C. elegans glycosylation mutants. C. elegans mutants of the indicated genotypes were analysed for development from L1 to L4 on AAL-expressing E. coli as described in Experimental Procedures. […]
# [3] = test system: H. contortus; assay: Haemonchus contortus toxicity assay (development L1 to L3, liquid, 96-well); type: in vivo; settings: bacterivorous stages fed lectin-expressing E. coli
# Protocol: (§1) FIG. 12 is a bar chart showing the toxicity of various fungal lectins towards H. contortus. The nematodes were analysed for development from L1 to L3 on lectin-expressing bacteria as described in the Experimental Procedures. The y-coordinate is the fraction of worms reaching L3 in the presence of bacteria expressing the lectins on the X-coordinate. Fungal lectins analyzed included C. cinerea galectin CGL2 (Genbank AAF34732), galectin-related lectin CGL3 (Genbank ABD64675), lectin RedA (CCL2) (Genbank ACD88750), Xerocomus chrysenteron lectin XCL (Genbank AAL73235) and its ortholog TAP1 from Sordaria macrospora (Genbank CAH03681), Aleuria aurantia lectin AAL (Genbank BAA00451) and Marasmius oreades agglutinin MOA (Genbank AAL47680).
# The toxicity towards the above-mentioned parasitic nematode was evaluated in a liquid assay using 96-well cell culture plates. H. contortus eggs were isolated from feces of an infected sheep and hatched on water-agar plates containing Kanamycin (50 μg/ml) and Amphotericin B (2.5 μg/ml). Approximately 30 L1 larvae were collected and transferred to each well, in a total volume of 150 μl 0.1× Earls solution. […] Plates were incubated at 28° C. in the dark, and percentage of larvae that developed to L3 were determined after 7 days.
# [4] = test system: C. elegans; assay: C. elegans toxicity plate assay (development L1 to L4 on lectin-expressing E. coli); type: in vivo, Caenorhabditis elegans; settings: lectin-expressing E. coli cells as food source
# Protocol: as §1, with “FIG. 1” for “FIG. 12”, “towards C. elegans. C. elegans wildtype (N2) and pmk-1 mutant worms” for “towards H. contortus. The nematodes”, “to L4” for “to L3”, “reaching L4” for “reaching L3”, “cinerea galectins CGL1 (Genbank AAF34731) and” for “cinerea galectin”, “(Genbank ABD64675) and” for “(Genbank ABD64675),”
# Plasmids for bacterial expression of fungal lectins were constructed by amplifying the respective open reading frame from cDNA or available plasmids and ligating the resulting fragment into pET24a (Invitrogen) using introduced restriction sites. […]
# Quantitative data on the effect of CGL2 on C. elegans development was acquired by placing 50 to 100 newly hatched L1 larvae of the indicated genotypes on the plates. After 72 h, the fraction of animals that reached L4 stage was determined.
# [5] = TBS, model of one ligand-binding site per protein monomer
# T1 sequence (Q9P4R8 whole entry): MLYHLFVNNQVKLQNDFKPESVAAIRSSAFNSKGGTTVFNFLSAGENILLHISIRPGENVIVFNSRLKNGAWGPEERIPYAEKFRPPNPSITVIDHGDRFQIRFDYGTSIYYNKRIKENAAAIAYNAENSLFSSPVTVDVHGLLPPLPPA
Molecule,entropy of binding (TΔS) ([1]; TBS),"enthalpy change (ΔH) [1, 5]","number of binding sites (N) [1, 5]","Kd ([1]; purified CGL2 300 μM in TBS, ligand 1.6 mM, one ligand-binding site per protein monomer, read-out: dissociation constant (Kd))",glycan that mediates nematotoxicity / is recognized in C. elegans [2],toxicity towards H. contortus [3],toxicity towards C. elegans [4]
"CC(=O)N[C@H]1[C@H](OCCCCCN)O[C@H](CO[C@@H]2O[C@@H](C)[C@@H](O[C@@H]3O[C@H](CO)[C@H](O)[C@H](O)[C@H]3O)[C@@H](O)[C@@H]2O)[C@@H](O)[C@@H]1O [Gal-β-1,4-Fuc-α-1,6-GlcNAc-β-O—C5H10—NH2]",-3.31 kcal/mol,-8.85 ± 0.1 kcal/mol,0.977±0.004,86.9 µM,,,
"AAL: β-propeller lectin from the ascomycete Aleuria aurantia (Genbank BAA00451) (protein, UniProt P18891 2-313, looked up) Fucose-specific lectin: PTEFLYTSKIAAISWAATGGRQQRVYFQDLNGKIREAQRGGDNPWTGGSSQNVIGEAKLFSPLAAVTWKSAQGIQIRVYCVNKDNILSEFVYDGSKWITGQLGSVGVKVGSNSKLAALQWGGSESAPPNIRVYYQKSNGSGSSIHEYVWSGKWTAGASFGSTVPGTGIGATAIGPGRLRIYYQATDNKIREHCWDSNSWYVGGFSASASAGVSIAAISWGSTPNIRVYWQKGREELYEAAYGGSWNTPGQIKDASRPTPSLPDTFIAANSSGNIDISVFFQASGVSLQQWQWISGKGWSIGAVVPTGTPAGW",,,,,binds terminal Fuc on a yet to be identified nematode glycoconjugate; also recorded: dependent on GDP-fucose biosynthesis,toxic,toxic
